Measurements taken from patent US10952436B2, “Microbiocidal quinoline (thio)carboxamide derivatives” (SYNGENTA PARTICIPATIONS AG, priority 2017, dated 2021).

Experiments:
Assay type in all cases: cell-based
[1] = system: Glomerella lagenarium (Colletotrichum lagenarium); experiment: Glomerella lagenarium (Colletotrichum lagenarium)/Liquid Culture (Anthracnose); conditions: Colletotrichum orbiculare; 200 ppm; liquid culture, compared to untreated control, 3-4 days after application; read-out: control of Glomerella lagenarium
[2] = system: Fusarium culmorum; experiment: microbe, parasite or virus in culture; conditions: read-out: control of Fusarium culmorum
[3] = system: Magnaporthe grisea (Pyricularia oryzae); experiment: microbe, parasite or virus in culture; conditions: read-out: control of Magnaporthe grisea
[4] = system: Botryotinia fuckeliana (Botrytis cinerea); experiment: Botryotinia fuckeliana (Botrytis cinerea)/Liquid Culture (Gray Mould); conditions: 200 ppm, liquid culture, compared to untreated control, 3-4 days after application, read-out: control of Botryotinia fuckeliana
[5] = system: Monographella nivalis (Microdochium nivale); experiment: Monographella nivalis (Microdochium nivale)/Liquid Culture (Foot Rot Cereals); conditions: 200 ppm, liquid culture, compared to untreated control, 4-5 days after application, read-out: control of Monographella nivalis

Measured: inhibition of growth at 200 ppm

O=C(Nc1cnc2ccccc2c1)C(Cc1ccccc1)CC(F)(F)F (stereo not drawn) [Compound E-79, 2-benzyl-4,4,4-trifluoro-N-(3-quinolyl)butanamide]
not listed: [5]
≥ 80%: all other assays above

CC(CCC(F)F)(Cc1ccccc1)C(=O)Nc1cnc2c(F)cccc2c1 (stereo not drawn) [Compound E-34, 2-benzyl-5,5-difluoro-N-(8-fluoro-3-quinolyl)-2-methyl-pentanamide]
not listed: [5]
≥ 80%: all other assays above

C=C(CC(C)(Cc1ccccc1)C(=O)Nc1cnc2c(F)cccc2c1)C(F)(F)F (stereo not drawn) [Compound E-23, 2-benzyl-N-(8-fluoro-3-quinolyl)-2-methyl-4-(trifluoromethyl)pent-4-enamide]
≥ 80%: all assays above

C#CCC(C)(Cc1ccccc1)C(=O)Nc1cnc2c(F)cccc2c1C (stereo not drawn) [Compound E-3, 2-benzyl-N-(8-fluoro-4-methyl-3-quinolyl)-2-methyl-pent-4-ynamide]
not listed: [3]
≥ 80%: all other assays above

Cc1cccc2cc(NC(=O)[C@@](C)(Cc3ccccc3)CC(F)(F)F)cnc12 [Compound F-17, (2S)-2-benzyl-4,4,4-trifluoro-2-methyl-N-(8-methyl-3-quinolyl)butanamide]
≥ 80%: all assays above

CON(C(=O)C(C)(Cc1ccccc1)CC(C)C)c1cnc2c(F)cccc2c1 (stereo not drawn) [Compound E-61, 2-benzyl-N-(8-fluoro-3-quinolyl)-N-methoxy-2,4-dimethyl-pentanamide]
≥ 80%: all assays above

C=C(C)CC(C)(Cc1ccccc1)C(=O)Nc1cnc2ccc(OC)cc2c1 (stereo not drawn) [Compound E-62, 2-benzyl-N-(6-methoxy-3-quinolyl)-2,4-dimethyl-pent-4-enamide]
≥ 80%: [5]

C=C(C(Cc1ccccc1)C(=O)Nc1cnc2c(F)cccc2c1)C(F)(F)F (stereo not drawn) [Compound E-24, 2-benzyl-N-(8-fluoro-3-quinolyl)-3-(trifluoromethyl)but-3-enamide]
≥ 80%: all assays above

CCC(C)CC(C)(Cc1ccccc1)C(=O)Nc1cnc2c(F)cccc2c1 (stereo not drawn) [Compound E-36, 2-benzyl-N-(8-fluoro-3-quinolyl)-2,4-dimethyl-hexanamide]
≥ 80%: all assays above

C#CCC(Cc1ccccc1)C(=O)Nc1cnc2c(F)cccc2c1C (stereo not drawn) [Compound E-95]
not listed: [3]
≥ 80%: all other assays above
